The results in this text go back to BindingDB's records for doi:10.1016/j.bmcl.2010.03.025 (Wyeth Research, 2010).

The target in this test is 3-phosphoinositide-dependent protein kinase 1 (PDPK1) (Homo sapiens) (UniProt O15530). The experiment in a line: Inhibition of PDK1.

Where only a bound is given, the exact number is not on record here.

`COc1cc(Nc2c(C#N)cnc3cc(/C=C/CCN4CCN(C)CC4)c(OC)cc23)c(Cl)cc1Cl` [(E)-4-(2,4-dichloro-5-methoxyphenylamino)-6-methoxy-7-(4-(4-methylpiperazin-1-yl)but-1-enyl)quinoline-3-carbonitrile]: the IC50 was > 10 µM.
